Results reported in patent US6423494B1, “DR6 and uses thereof” (Millennium Pharmaceuticals, Inc., priority 1999, dated 2002).

tested on: colon cancer cell line SW-620; assay: Drug sensitivity of colon cancer cell line SW-620 (NCI60 panel); assay type: cell-based, human; details: SW-620 colon cancer cell line, in which DR6 does not appear to be expressed (Northern analysis)
Description: In order to identify genes involved in drug resistance, the expression various genes in drug resistant cancer cells was measured. The drug resistant cancer cell lines used were all members of the NCI60 panel of drug resistant cell lines. The cell lines in this panel are resistant to one or more chemotherapeutic compounds.

Row | SMILES | sensitivity of the cell line to the drug
1 | N.N.[Cl][Pt][Cl] [cisplatin] | relatively sensitive
2 | CC[C@@]1(O)C(=O)OCc2c1cc1n(c2=O)Cc2cc3c(CN(C)C)c(O)ccc3nc2-1 [topotecan] | relatively sensitive
3 | COc1cc([C@@H]2c3cc4c(cc3[C@@H](O[C@@H]3O[C@@H]5CO[C@@H](C)O[C@H]5[C@H](O)[C@H]3O)[C@H]3COC(=O)[C@H]23)OCO4)cc(OC)c1O [etoposide] | relatively sensitive
4 | COc1cccc2c1C(=O)c1c(O)c3c(c(O)c1C2=O)C[C@@](O)(C(=O)CO)C[C@@H]3O[C@H]1C[C@H](N)[C@H](O)[C@H](C)O1 [doxorubicin] | relatively sensitive
5 | O=C(O)CCCc1ccc(N(CCCl)CCCl)cc1 [chlorambucil] | relatively sensitive
